Results from PubChem BioAssay AID1845197 (Molecular Pharmacology Branch, DTP, NCI, 2023).

Test system: 349418-098-R tumor spheroid viability
Test: Anticancer human tumor 349418-098-R patient-derived lung adenocarcinoma cell line growth inhibition
Conditions: spheroids with HUVEC and MSC; for IC50: curve of first compound; for viability, T/C: stronger effect = lower value
Outline: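 Complex spheroids of malignant cells with endothelial cells and mesenchymal stem cells; agents alone or combined, from near clinical Cmax (or 10 microM if unknown) down in half-log steps, 0.25% DMSO final.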
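Further: spheroids exposed to compound for 7 days before measurement.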
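Wherever viability, T/C is given: percent of vehicle control viability with 100% = DMSO-treated spheroids.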

## Cc1sc2c(c1C)C(c1ccc(Cl)cc1)=NC(CC(=O)Nc1ccc(O)cc1)c1nnc(C)n1-2 (stereo not given) + CC[C@@]1(O)C(=O)OCc2c1cc1n(c2=O)Cc2cc3c(CN(C)C)c(O)ccc3nc2-1
Second compound 0.003 µM
  IC50: 71.4 nM
Second compound 0.00949 µM
  IC50: 69.2 nM
Second compound 0.03 µM
  IC50: 41.6 nM
Second compound 0.0949 µM
  IC50: < 9.49 nM
Second compound 0.3 µM
  IC50: < 9.49 nM
Second compound 0.003 µM, first compound 0.00949 µM
  viability, T/C: 96.2%
Second compound 0.003 µM, first compound 0.03 µM
  viability, T/C: 83.1%
Second compound 0.003 µM, first compound 0.0949 µM
  viability, T/C: 39.1%
Second compound 0.003 µM, first compound 0.3 µM
  viability, T/C: 7.85%
Second compound 0.003 µM, first compound 0.949 µM
  viability, T/C: 0.87%
Second compound 0.003 µM, first compound 3 µM
  viability, T/C: 0.47%
Second compound 0.00949 µM, first compound 0.00949 µM
  viability, T/C: 92.4%
Second compound 0.00949 µM, first compound 0.03 µM
  viability, T/C: 78.1%
Second compound 0.00949 µM, first compound 0.0949 µM
  viability, T/C: 40%
Second compound 0.00949 µM, first compound 0.3 µM
  viability, T/C: 6.43%
Second compound 0.00949 µM, first compound 0.949 µM
  viability, T/C: 0.61%
Second compound 0.00949 µM, first compound 3 µM
  viability, T/C: 0.48%
Second compound 0.03 µM, first compound 0.00949 µM
  viability, T/C: 77.9%
Second compound 0.03 µM, first compound 0.03 µM
  viability, T/C: 61.7%
Second compound 0.03 µM, first compound 0.0949 µM
  viability, T/C: 20.9%
Second compound 0.03 µM, first compound 0.3 µM
  viability, T/C: 5.67%
Second compound 0.03 µM, first compound 0.949 µM
  viability, T/C: 0.64%
Second compound 0.03 µM, first compound 3 µM
  viability, T/C: 0.38%
Second compound 0.0949 µM, first compound 0.00949 µM
  viability, T/C: 12.6%
Second compound 0.0949 µM, first compound 0.03 µM
  viability, T/C: 16.2%
Second compound 0.0949 µM, first compound 0.0949 µM
  viability, T/C: 4.16%
Second compound 0.0949 µM, first compound 0.3 µM
  viability, T/C: 1.07%
Second compound 0.0949 µM, first compound 0.949 µM
  viability, T/C: 0.3%
Second compound 0.0949 µM, first compound 3 µM
  viability, T/C: 0.35%
Second compound 0.3 µM, first compound 0.00949 µM
  viability, T/C: 2.78%
Second compound 0.3 µM, first compound 0.03 µM
  viability, T/C: 2.56%
Second compound 0.3 µM, first compound 0.0949 µM
  viability, T/C: 1.45%
Second compound 0.3 µM, first compound 0.3 µM
  viability, T/C: 0.63%
Second compound 0.3 µM, first compound 0.949 µM
  viability, T/C: 0.55%
Second compound 0.3 µM, first compound 3 µM
  viability, T/C: 0.39%

## O=C(c1cc(Cc2n[nH]c(=O)c3ccccc23)ccc1F)N1CCN(C(=O)C2CC2)CC1 + Cn1nnc2c(C(N)=O)ncn2c1=O
Second compound 1 µM
  IC50: > 30000 nM
Second compound 3.16 µM
  IC50: > 30000 nM
Second compound 10 µM
  IC50: 23200 nM
Second compound 31.6 µM
  IC50: 7270 nM
Second compound 100 µM
  IC50: 1810 nM
Second compound 1 µM, first compound 0.0949 µM
  viability, T/C: 98.5%
Second compound 1 µM, first compound 0.3 µM
  viability, T/C: 98.9%
Second compound 1 µM, first compound 0.949 µM
  viability, T/C: 103%
Second compound 1 µM, first compound 3 µM
  viability, T/C: 98.7%
Second compound 1 µM, first compound 9.49 µM
  viability, T/C: 79.9%
Second compound 1 µM, first compound 30 µM
  viability, T/C: 57%
Second compound 3.16 µM, first compound 0.0949 µM
  viability, T/C: 99.5%
Second compound 3.16 µM, first compound 0.3 µM
  viability, T/C: 100%
Second compound 3.16 µM, first compound 0.949 µM
  viability, T/C: 99%
Second compound 3.16 µM, first compound 3 µM
  viability, T/C: 99%
Second compound 3.16 µM, first compound 9.49 µM
  viability, T/C: 89.1%
Second compound 3.16 µM, first compound 30 µM
  viability, T/C: 60.3%
Second compound 10 µM, first compound 0.0949 µM
  viability, T/C: 103%
Second compound 10 µM, first compound 0.3 µM
  viability, T/C: 103%
Second compound 10 µM, first compound 0.949 µM
  viability, T/C: 102%
Second compound 10 µM, first compound 3 µM
  viability, T/C: 96.8%
Second compound 10 µM, first compound 9.49 µM
  viability, T/C: 81.9%
Second compound 10 µM, first compound 30 µM
  viability, T/C: 40.5%
Second compound 31.6 µM, first compound 0.0949 µM
  viability, T/C: 102%
Second compound 31.6 µM, first compound 0.3 µM
  viability, T/C: 98.5%
Second compound 31.6 µM, first compound 0.949 µM
  viability, T/C: 100%
Second compound 31.6 µM, first compound 3 µM
  viability, T/C: 94.7%
Second compound 31.6 µM, first compound 9.49 µM
  viability, T/C: 36.6%
Second compound 31.6 µM, first compound 30 µM
  viability, T/C: 16%
Second compound 100 µM, first compound 0.0949 µM
  viability, T/C: 96.5%
Second compound 100 µM, first compound 0.3 µM
  viability, T/C: 98%
Second compound 100 µM, first compound 0.949 µM
  viability, T/C: 78.2%
Second compound 100 µM, first compound 3 µM
  viability, T/C: 27.9%
Second compound 100 µM, first compound 9.49 µM
  viability, T/C: 10.2%
Second compound 100 µM, first compound 30 µM
  viability, T/C: 9.95%
